The subject of test [1] is K562. The experiment in a line: Antiproliferative activity against human K562 cells assessed as cell viability after 72 hrs by CellTitre-Glo luminescent assay. It is filed as functional, cell-based.
The target of test [2] is Histone deacetylase. Nature of the test: Inhibition of HDAC in human HeLa cells nuclear extract using Fluor de lys as substrate after 15 mins by fluorometric analysis. The format is cell-based.
Test [3] can be described thus: Antiproliferative activity against human HCT116 cells assessed as cell viability after 72 hrs by CellTitre-Glo luminescent assay. It is filed as functional, cell-based, HCT-116.
Test [4] has as its system A549. The experiment in a line: Antiproliferative activity against human A549 cells assessed as cell viability after 72 hrs by CellTitre-Glo luminescent assay. It is filed as functional, cell-based.

What is called IC50 is the point on the concentration scale where inhibition reaches its midpoint. Take `O=C(/C=C/c1ccc2c(c1)C(=O)CC1(CN(CCc3ccccc3)C1)O2)NO`: the 50% inhibitory concentration (IC50) was 0.25 µM in test [1] (Homo sapiens, K562, 72 h); 0.219 µM in test [2]; 0.22 µM in test [3] (Homo sapiens, HCT-116, 72 h); 0.896 µM in test [4] (Homo sapiens, A549, 72 h).
As to `CC(=O)N1CCC2(CC(=O)c3cc(/C=C/C(=O)NO)ccc3O2)C1` (racemic), the IC50 in test [1] (Homo sapiens, K562, 72 h) is above 50 µM; in test [2], 0.955 µM; in test [3] (Homo sapiens, HCT-116, 72 h), above 50 µM; in test [4] (Homo sapiens, A549, 72 h) it was above 50 µM.
As for `O=C(/C=C/c1ccc2c(c1)C(=O)CC1(CN(Cc3ccc(F)cc3)C1)O2)NO`, the IC50 in test [1] (Homo sapiens, K562, 72 h) is 0.301 µM; in test [2], 0.13 µM; in test [3] (Homo sapiens, HCT-116, 72 h) it was 0.19 µM; in test [4] (Homo sapiens, A549, 72 h) it was 0.684 µM.
For `CN1CC2(CC(=O)c3cc(/C=C/C(=O)NO)ccc3O2)C1`, in that order: 0.168 µM, 0.168 µM, 0.178 µM and 0.429 µM.
Turning to `O=C(/C=C/c1ccc2c(c1)C(=O)CC1(CCCN(Cc3ccc(F)cc3)C1)O2)NO` (racemic), the IC50 in test [1] (Homo sapiens, K562, 72 h) was found to be 0.552 µM; in test [2], 0.034 µM; in test [3] (Homo sapiens, HCT-116, 72 h), 0.372 µM; in test [4] (Homo sapiens, A549, 72 h), 1.16 µM.
Consider `O=C(/C=C/c1ccc2c(c1)C(=O)CC1(CCCN(Cc3ccccc3)C1)O2)NO` (single isomer, unassigned; (-)), for which the IC50 in test [1] (k562) was 0.441 µM; in test [2], 0.084 µM; in test [3] (hct-116) it was 0.326 µM; in test [4] (a549), 1.06 µM.
Take `O=C(/C=C/c1ccc2c(c1)C(=O)CC1(CCCN(Cc3ccccc3)C1)O2)NO` (racemic): the IC50 in test [1] (Homo sapiens, K562, 72 h) turned out to be 0.43 µM; in test [2] it was 0.056 µM; in test [3] (Homo sapiens, HCT-116, 72 h), 0.385 µM; in test [4] (Homo sapiens, A549, 72 h), 0.839 µM.
The matching figures for `CC(=O)N1CC2(CC(=O)c3cc(/C=C/C(=O)NO)ccc3O2)C1`: 15.1 µM, 0.485 µM, 10.5 µM and 47.7 µM.
As for `O=C(/C=C/c1ccc2c(c1)C(=O)CC1(CCN(C(=O)c3ccccc3)C1)O2)NO` (racemic), the IC50 in test [1] (Homo sapiens, K562, 72 h) stood at 0.533 µM; in test [2], 0.187 µM; in test [3] (Homo sapiens, HCT-116, 72 h) it was 0.51 µM; in test [4] (Homo sapiens, A549, 72 h) it was 2.11 µM.
For `O=C(/C=C/c1ccc2c(c1)C(=O)CC1(CCCN(C(=O)c3ccccc3)CC1)O2)NO` (racemic), in that order: 1.11 µM, 0.11 µM, 0.617 µM and 3.78 µM.
Regarding `CN1CCC2(CC(=O)c3cc(/C=C/C(=O)NO)ccc3O2)C1` (racemic), the IC50 in test [1] (Homo sapiens, K562, 72 h) was found to be 0.198 µM; in test [2], 0.119 µM; in test [3] (Homo sapiens, HCT-116, 72 h), 0.146 µM; in test [4] (Homo sapiens, A549, 72 h), 0.357 µM.
For `O=C(/C=C/c1ccc2c(c1)C(=O)CC1(CNC1)O2)NO`, in that order: 2.58 µM, 0.228 µM, 3.68 µM and 8.58 µM.
For `CCOC(=O)N1CCCC2(CC(=O)c3cc(/C=C/C(=O)NO)ccc3O2)C1` (racemic), in that order: 0.936 µM, 0.232 µM, 0.678 µM and 2.28 µM.
For `CCOC(=O)N1CCCC2(CC1)CC(=O)c1cc(/C=C/C(=O)NO)ccc1O2` (racemic), in that order: 1.66 µM, 0.3 µM, 1.01 µM and 5.75 µM.
Take `CCOC(=O)N1CCC2(CC(=O)c3cc(/C=C/C(=O)NO)ccc3O2)C1` (racemic): the half-maximal inhibitory concentration (IC50) in test [1] (Homo sapiens, K562, 72 h) is 0.721 µM; in test [2], 0.15 µM; in test [3] (Homo sapiens, HCT-116, 72 h), 0.351 µM; in test [4] (Homo sapiens, A549, 72 h) it was 0.837 µM.
As for `O=C(/C=C/c1ccc2c(c1)C(=O)CC1(CCCN(Cc3ccccc3)C1)O2)NO` (stereo in doubt; 33j), the IC50 in test [1] (k562) was 0.523 µM; in test [2], 0.143 µM; in test [3] (hct-116), 0.447 µM; in test [4] (a549) it was 1.46 µM.

The record behind these values is ChEMBL document CHEMBL3758162, “Synthesis, biological characterization and molecular modeling insights of spirochromanes as potent HDAC inhibitors” (Eur J Med Chem, 2016).
